In patent US7214716B2, “Agonists specific for the peripheral cannabinoid receptor” (Yissum Research Development Co. of the Hebrew University of …, priority 2000, dated 2007):

What was measured:
[1] = target: CB2 receptor (Homo sapiens, UniProt P34972); conditions: background, known compound; cited from earlier work
[2] = system: arachidonic acid-induced swelling of the ear in female Sabra mice; assay: Arachidonic acid-induced ear inflammation in the mouse; type: in vivo; conditions: for arachidonic acid-induced ear swelling: injected 30 to 90 min before arachidonic acid
Protocol: The other ear was treated with […] of EtOH and served as a control. Ear swelling was assessed by measuring ear thickness with a dial thickness gauge (Mitutoyo, Japan) just before treatment and every 15 min after A′A application for 90 min. […] N=5 for each treatment group.
Ear inflammation was measured by assessing ear tissue swelling after topical application of arachidonic acid. […] J., Wagner, B., Ballaron, S. & De Young, L. M. (1984) J. Invest. Dernlatol. 82, 367–371]. […] The opposite ear served as a control ([…] ethanol). Ear thickness was determined (in 0.01 mm units) every 15 min for 90 min starting immediately after arachidonic acid application using a dial thickness gauge (Mitutoyo, Japan).

[3] = system: experimental autoimmune arthritis in CD-1 male mice; assay: Experimental autoimmune arthritis (collagen type 2 in complete Freund's adjuvant); type: in vivo, mouse
Protocol: Experimental autoimmune arthritis is induced in animals by immunization with collagen type 2 in complete Freund's adjuvant.
Adult CD-1 male mice (27–33 gr), at least five per treatment group, are used in the study. Each animal is administered 100 μg/ml collagen type 2 in 0.1 mL complete Freund's adjuvant. The collagen is administered subcutaneously into the base of the tail. The volume of each hind paw is measured using a plethysmometer (commercially available from Hugo Basill of Italy) before collagen administration and on days 1, 4, 7, 10, 13, and 16 of treatment (30 minutes after drug treatment). […] All treatments are administered intraperitoneally. […] The same procedure is performed with blank cosolvent. Diclofenac is prepared at Pharmos, as a solution of 1 mg/ml. At the same time the paws are measured they are also clinically evaluated according to the method of R. O Williams, Proc. Natl. Acad. Sci. USA: 89: 9784–9788, wherein 0=normal, 1=slight swelling and erythema, 2=pronounced edematous swelling, and 3=joint rigidity.
The major arthritis related sign that is evident in experimental autoimmune arthritis is swelling of the paws. […] The differences are compared using a non parametric analysis (Wilcoxon Rank Sum Test).

[4] = system: female C57/BL6 mice
Protocol: This difference in binding is reflected in the results of the pharmacological assays. […] Such effects are considered to be mediated by the CBI receptor.
R. (1993) Eur. J. Pharmacol. 231, 313–314]. At various times after injection mice were tested in four assays consecutively. The four assays were (1) motor activity (ambulation and rearing) in an open field (20×30 cm, divided into 12 squares of equal size) for 8 min; (2) immobility (“catalepsy”) on a ring of 5.5 cm diameter for 4 min; (3) body temperature with a telethermometer (Yellow Springs Instruments Co.); and (4) analgesia on a hot plate maintained at 55° C., measured as the latency (in seconds) until the first hind paw lick or jump from the plate (the latter response was rarely observed) with a maximum of 45 s.

[5] = system: female Sabra mice; assay: Inhibition of intestinal motility (fecal pellets voided over 2 hr); type: in vivo, mouse
Protocol: Intestinal motility was assessed every 15 min (over a 2 hr period) by the cumulative number of fecal pellets voided in a two hour period after separating the mice into individual cages. […] By 90 min all treated groups differed from controls.
Rectal temperature was also recorded as a measure of central activity.

[6] = system: anesthetized rats; assay: Blood pressure assay in anesthetized cannulated rats; type: in vivo, rat
Protocol: Systemic blood pressure was monitored in male rats (Sabra strain, 270–350 g). A chronic cannula (P 50, Clay Adams) was implanted into the femoral artery under pentobarbital anesthesia (60 mg/kg). The jugular vein was cannulated for drug administration. The arterial cannula was attached to a pressure transducer (Db23, Statham City) and the transducer was connected to a data acquisition system (CODAS software and scroller card, Dataq, Ohio). Pressure was sampled at a rate of 1/s.
Recordings were taken for 30–60 min before treatment.

[7] = system: formalin-induced peripheral pain in mice; assay: Formalin test for peripheral pain; type: in vivo, mouse
Protocol: Pain was assessed as the total number of licks of the injected hindpaw recorded for the duration of one hr. Early (5 min) and late (25–60 min) phase pain were observed as described in Calignano, A., La Rana, G., Giuffrida, A. & Piomelli, D. (1998) Nature (London) 394, 277–280.
Pain mediated by the peripheral nervous system, was tested in the “formalin test” for cutaneous (peripheral) pain [Tjolson, A., Berge, O-G., Hunskaar, S., Rosland, J. H. and Hole, K. (1992) Pain, 51, 5–17; Calignano, A., La Rana, G., Giuffrida, A & Piomelli, D. (1998) Nature (London) 394, 277–280; and Jagger, S. I., Hasnie, F. S., Sellaturay, S. and Rice, A.S.C. (1998) Pain 76, 189–199]. […] Immediately after formalin administration pain was assessed every 5 min for 1 hr by the number of times the animal licks the formalin-injected paw.

[8] = system: acetic acid induced inflammatory bowel disease in male Sprague Dawley rats; assay: Acetic acid induced inflammatory bowel disease; type: in vivo, rat
Protocol: Animals were clinically followed for 1 week and body weight, presence of blood in the stool, and stool consistency were monitored and recorded daily and scored on a scale of 0–4 according to the scale provided in Table 1 [Murthy et al., Dig. Dis. Sci., 38(9), 1722–1734, (1993)].
Seven days post disease induction animals were euthanized with phenobarbital (100 mg/kg i.p.), the whole colon excised, slit longitudinally, and examined under a magnifying glass. Any visible damage to the colon was recorded and scored.
Clinical outcome was analyzed using analysis of variance (ANOVA) followed by Duncan's post hoc test. A non-parametric test (Wilcox Rank Sum Test) was used to evaluate the gross pathology findings.

[9] = system: EAE in Lewis rats; assay: Experimental autoimmune encephalomyelitis (EAE); type: in vivo, rat; conditions: intravenous, treatment from day 10 to day 18 post induction
[10] = 40 mg/kg i.p., tested 10, 30 or 150 min after administration

Sequence of CB2 receptor (P34972 whole entry): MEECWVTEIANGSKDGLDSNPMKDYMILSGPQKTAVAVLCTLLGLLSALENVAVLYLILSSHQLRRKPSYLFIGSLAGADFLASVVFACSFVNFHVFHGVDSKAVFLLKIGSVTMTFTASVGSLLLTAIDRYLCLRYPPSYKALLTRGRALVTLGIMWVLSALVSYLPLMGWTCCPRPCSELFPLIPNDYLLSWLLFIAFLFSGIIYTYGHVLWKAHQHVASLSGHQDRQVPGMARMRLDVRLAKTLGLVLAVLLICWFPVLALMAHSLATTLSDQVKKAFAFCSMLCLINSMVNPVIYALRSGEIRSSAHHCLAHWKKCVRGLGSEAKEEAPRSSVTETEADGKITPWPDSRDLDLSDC

C=C1CC[C@@H]2[C@@H](C1)c1c(OC)cc(C(C)(C)CCCCCC)cc1OC2(C)C [L-759,656]
CB1/CB2 binding ratio [1]: > 1000

Cc1c(C(=O)NN2CCCCC2)nn(-c2ccc(Cl)cc2Cl)c1-c1ccc(Cl)cc1 [SR 141716A]
arachidonic acid-induced ear swelling, antagonist by itself ([2]; 5 mg/kg i.p., alone): by itself reduced arachidonic acid-induced ear swelling

SR 144528
anti-inflammatory effect, antagonist by itself ([2]; 0.5 mg/kg, alone): did not by itself induce an anti-inflammatory effect

O=C(O)Cc1ccccc1Nc1c(Cl)cccc1Cl [diclofenac, reference compound]
paw volume compared to vehicle ([3]; 10 mg/kg i.p. every 3 days, positive control): smaller paw volume compared to the vehicle treated rats, but this difference is not statistically significant

CCCCCCC(C)(C)c1cc(OC)c([C@H]2C=C(CO)[C@H]3CC2C3(C)C)c(OC)c1 (single isomer, unassigned; (+)) [HU-308, (+)-(1-a-H,-(3-H,5-a-H)-4-(2,6-dimethoxy-4-(1,1-dimethylheptyl)phenyl]-6,6-dimethylbicycloj3.1.1]hept-2-ene-2-carbinol]
activity in an open field trial (ambulation, rearing) [4, 10]: no decrease in their activity in an open field trial
analgesia on a hot plate [4, 10]: no analgesia on a hot plate
body temperature [4, 10]: no reduction in body temperature
catalepsy (immobility on a ring) [4, 10]: no catalepsy
activity in the tetrad of behavioral tests specific for THC-type CNS activity ([4]; mice, summary): no activity
inhibition of intestinal mobility ([5]; 20 mg/kg i.p., mice): complete inhibition of intestinal mobility
number of fecal boli voided vs controls ([5]; 100 mg/kg i.p., after 75 min): significantly fewer boli than controls
inhibition of intestinal motility in presence of CB2 antagonist SR144528 ([5]; HU-308 plus SR144528): in part blocked this effect
effect on blood pressure ([6]; 30 mg/kg i.v., anesthetized cannulated rats): lowers blood pressure
hypotensive effect after CB1 antagonist SR 141716A ([6]; SR141716A 3 mg/kg injected 5 min prior to HU-308 30 mg/kg i.v.): not by the CB1 antagonist SR 141716A
hypotensive effect after CB2 antagonist SR 144528 ([6]; SR144528 1 mg/kg injected 5 min prior to HU-308 30 mg/kg i.v.): blocked by the CB2 antagonist SR 144528
time for blood pressure effect to return to normal after administration ([6]; i.v. bolus, preliminary observations): < 30 min
effect on blood pressure, lower doses ([6]; i.v. doses lower than 30 mg/kg): did not have a significant effect
arachidonic acid-induced ear swelling ([2]; 50 mg/kg i.p.): significant reduction of arachidonic acid-induced ear swelling
anti-inflammatory effect of HU-308 after CB1 antagonist SR 141716A ([2]; SR 141716A 5 mg/kg administered 15 min before HU-308 50 mg/kg i.p.): did not prevent the anti-inflammatory effect of HU-308
anti-inflammatory effect of HU-308 after CB2 antagonist SR 144528 ([2]; SR 144528 0.5 mg/kg before HU-308 50 mg/kg i.p.): reduced the anti-inflammatory effect of HU-308
formalin-induced peripheral pain (licks of injected hindpaw), late phase ([7]; 50 mg/kg i.p., 90 min before formalin, late phase (25-60 min)): reduced peripheral pain during the late phase of pain behavior
formalin-induced peripheral pain, early versus late phase ([7]; 50 mg/kg i.p., early (5 min) and late (25-60 min) phase): effects were only observed during the late phase
peripheral analgetic effect after CB1 antagonist SR 141716A ([7]; SR 141716A injected 15 min before HU-308): not by SR 141716A
peripheral analgetic effect after CB2 antagonist SR 144528 ([7]; SR144528 injected 15 min before HU-308 50 mg/kg i.p.): prevented by SR 144528
severity of acid induced inflammatory bowel disease ([8]; 10 and 20 mg/kg i.p. daily for seven days): can reduce the severity of acid induced inflammatory bowel disease
reduction of pathological lesion severity in the gastrointestinal tract (gross pathology score) compared to vehicle ([8]; i.p. daily for 7 days, p<0.05 for 10 mg/kg, p=0.052 for 20 mg/kg): 35%
incidence and severity of swelling of the paws ([3]; 2-15 mg/kg i.p. every three days or once daily): decreased incidence and severity of swelling of the paws
mean clinical score of EAE [9]: diminution of mean clinical score

COc1ccc2c(c1)c(CC(=O)O)c(C)n2C(=O)c1ccc(Cl)cc1 [indomethacin]
arachidonic acid-induced ear swelling ([2]; 20 mg/kg i.p.): significant reduction of arachidonic acid-induced ear swelling
anti-inflammatory effect compared with HU-308 (50 mg/kg) ([2]; indomethacin 20 mg/kg i.p.): greater than that produced by HU-308
